Experimental data published in the NIST ThermoML archive (doi:10.1021/acs.jced.7b00344).

Assay: xn = mol fraction of the nth substance listed
Details: 101.3 kPa, Liquid; for viscosity: Capillary tube (Ostwald / Ubbelohde) method; for mass density: Pycnometric method

CC(=O)CCCCl [1-chloro-4-pentanone] + CC(=O)C1CC1
Details | mass density, 303.15 K [kg/m3] | mass density, 313.15 K [kg/m3] | mass density, 323.15 K [kg/m3] | mass density, 333.15 K [kg/m3] | viscosity, 303.15 K [mPa·s] | viscosity, 313.15 K [mPa·s] | viscosity, 323.15 K [mPa·s] | viscosity, 333.15 K [mPa·s]
x2 = 0 | 1051.3 | 1041.1 | 1031.2 | 1020.8 | 1.582 | 1.318 | 1.078 | 0.9667
x2 = 0.0998 | 1039.1 | 1029.1 | 1019.4 | 1009.3 | 1.427 | 1.21 | 1.03 | 0.8933
x2 = 0.2009 | 1026.1 | 1016.3 | 1006.7 | 996.8 | 1.223 | 1.043 | 0.9043 | 0.7927
x2 = 0.3004 | 1012.5 | 1002.9 | 993.4 | 983.6 | 1.135 | 0.9766 | 0.8507 | 0.7484
x2 = 0.4002 | 998 | 988.5 | 979.1 | 969.5 | 1.07 | 0.9252 | 0.8063 | 0.7131
x2 = 0.4999 | 982.8 | 973.3 | 963.9 | 954.4 | 0.955 | 0.8296 | 0.7322 | 0.6517
x2 = 0.5999 | 966.5 | 957.1 | 947.7 | 938.3 | 0.8757 | 0.7715 | 0.6787 | 0.6086
x2 = 0.6999 | 948.9 | 939.7 | 930.4 | 921.1 | 0.839 | 0.7366 | 0.649 | 0.5818
x2 = 0.7999 | 930.2 | 921 | 911.7 | 902.6 | 0.7363 | 0.6493 | 0.5783 | 0.5207
x2 = 0.8999 | 910.5 | 901.1 | 891.6 | 882.4 | 0.7027 | 0.6216 | 0.5513 | 0.4968
